Experimental data reported in paper PMC8592419 (PLoS ONE, 2021).
≈ marks a conversion by molar mass, not a printed value. Like-named read-outs stand apart in the source and are kept apart here. Where a SMILES comes first, the peptide text is derived from it.

Legend:
[1] = tested on: M. abscessus clinical isolate MAB03; assay: In vitro susceptibility testing (DST), CLSI broth microdilution; format: cell-based, M. abscessus subsp. abscessus; parameters: key to DST profile, interpretation, Day 3 / DST profile, interpretation, Day 5 / DST profile, interpretation, Day 14: S, susceptible; I, intermediate; R, resistant; conditions: for MIC: Mycobacteroides abscessus
Experimental: Drug susceptibility testing (DST) was performed according to the Clinical and Laboratory Standards Institute (CLSI) guidelines M24-A2 [42] using the broth microdilution method to determine the minimum inhibitory concentration (MIC). […] Colonies were grown at an adjusted cell density to a 0.5 McFarland standard and further diluted to 5×10^5 CFU/ml. […] These were then incubated at 37°C for 3, 5 and 14 days. The MIC was defined as the concentration in which no visible growth was observed. The results were interpreted according to the guidelines of CLSI. Inducible resistance was inferred by changes in MIC values from being susceptible at day 3 to resistant at day 14.

Row | SMILES | MIC ([1]; 72 h, day 3, read-out: DST profile, MIC value, Day 3) | MIC ([1]; 120 h, day 5, read-out: DST profile, MIC value, Day 5) | MIC ([1]; 336 h, day 14, read-out: DST profile, MIC value, Day 14) | DST profile, interpretation, Day 3 ([1]; day 3, CLSI interpretation) | DST profile, interpretation, Day 5 ([1]; day 5, CLSI interpretation) | DST profile, interpretation, Day 14 ([1]; day 14, CLSI interpretation) | MIC within 24 h, majority of isolates (10/16)
1 | CC[C@H]1OC(=O)[C@H](C)[C@@H](O[C@H]2C[C@@](C)(OC)[C@@H](O)[C@H](C)O2)[C@H](C)[C@@H](O[C@@H]2O[C@H](C)C[C@H](N(C)C)[C@H]2O)[C@](C)(OC)C[C@@H](C)C(=O)[C@H](C)[C@@H](O)[C@]1(C)O [CLA, Clarithromycin] | 8 µg/mL (≈ 10.7 µM) | 8 µg/mL (≈ 10.7 µM) | 8 µg/mL (≈ 10.7 µM) | R | R | R | 
2 | CC[C@H](C)[C@H](NC(=O)[C@H](CCCCN)NC(=O)[C@H](CCCNC(=N)N)NC(=O)CNC(=O)[C@H](CC(C)C)NC(=O)[C@H](CO)NC(=O)[C@H](CCCNC(=N)N)NC(=O)[C@H](CC(C)C)NC(=O)CNC(=O)CN)C(=O)N[C@@H](CC(C)C)C(=O)N[C@@H](CCCNC(=N)N)C(=O)N[C@@H](C)C(=O)N[C@@H](Cc1c[nH]c2ccccc12)C(=O)N[C@@H](CCCCN)C(=O)N[C@@H](CCCCN)C(=O)N[C@@H](Cc1ccc(O)cc1)C(=O)O [S61] (H-GGLRSLGRKILRAWKKY-OH) |  |  |  |  |  |  | < 50 µg/mL
